Assay results reported in ChEMBL document CHEMBL1137681, “Design, synthesis and characterization of N9/N7-substituted 6-aminopurines as VEGF-R and EGF-R inhibitors” (Eur J Med Chem, 2009).
Values belong to the compound of their own block, whether it stands above or below them. The source made the active and inactive calls. The calls are words filed in the database; no cut-off is given here.

Experiments:
[1] = target: Vascular endothelial growth factor receptor 3 (Homo sapiens, UniProt P35916); assay: Inhibition of VEGFR3 up to 100 uM
[2] = target: Ribosomal protein S6 kinase alpha-1 (Rattus norvegicus) (UniProt Q63531); assay: Inhibition of rat MAPKAP-K1a at 10 uM
[3] = target: Casein kinase I isoform delta (Rattus norvegicus) (UniProt Q06486); assay: Inhibition of rat CK1delta (1-294) at 10 uM
[4] = target: Homeodomain-interacting protein kinase 3 (Homo sapiens) (UniProt Q9H422); assay: Inhibition of human HIPK3 at 10 uM
[5] = target: Mitogen-activated protein kinase 12 (Homo sapiens) (UniProt P53778); assay: Inhibition of SAPK3 at 10 uM
Chain of Mitogen-activated protein kinase 12 (Homo sapiens) (P53778 whole entry): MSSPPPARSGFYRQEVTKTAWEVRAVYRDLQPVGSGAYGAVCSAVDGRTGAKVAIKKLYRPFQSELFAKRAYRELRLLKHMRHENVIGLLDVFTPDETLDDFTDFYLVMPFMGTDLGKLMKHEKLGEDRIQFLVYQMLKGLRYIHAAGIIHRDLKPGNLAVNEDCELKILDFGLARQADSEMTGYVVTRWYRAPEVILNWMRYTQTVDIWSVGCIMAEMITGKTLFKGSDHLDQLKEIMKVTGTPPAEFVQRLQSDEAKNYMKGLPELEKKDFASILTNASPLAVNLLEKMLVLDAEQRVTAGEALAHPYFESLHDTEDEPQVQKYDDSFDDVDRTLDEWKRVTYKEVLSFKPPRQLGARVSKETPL

[6] = target: Dual specificity tyrosine-phosphorylation-regulated kinase 1A (Rattus norvegicus) (UniProt Q63470); assay: Inhibition of rat DYRK1a at 10 uM
[7] = target: Mitogen-activated protein kinase 14 (Homo sapiens) (UniProt Q16539); assay: Inhibition of SAPK2a at 10 uM
[8] = target: Eukaryotic elongation factor 2 kinase (Homo sapiens) (UniProt O00418); assay: Inhibition of human EF2K at 10 uM
[9] = system: Ribosomal protein S6 kinase beta-1 (Homo sapiens), P23443 [T412E]; assay: Inhibition of S6K1 T412E mutant at 10 uM
[10] = Inhibition of CK2 at 10 uM
[11] = target: Rho-associated protein kinase 2 (Rattus norvegicus) (UniProt Q62868); assay: Inhibition of rat ROCK2 at 10 uM
[12] = system: RAC-alpha serine/threonine-protein kinase (Homo sapiens), P31749 [S473D]; assay: Inhibition of PKBalpha S473D mutant at 10 uM
[13] = system: Serine/threonine-protein kinase B-raf (Homo sapiens), P15056 [V600E]; assay: Inhibition of BRAF V600E mutant up to 100 uM
Chain of Serine/threonine-protein kinase B-raf (Homo sapiens), P15056 [V600E] (P15056 whole entry V600E): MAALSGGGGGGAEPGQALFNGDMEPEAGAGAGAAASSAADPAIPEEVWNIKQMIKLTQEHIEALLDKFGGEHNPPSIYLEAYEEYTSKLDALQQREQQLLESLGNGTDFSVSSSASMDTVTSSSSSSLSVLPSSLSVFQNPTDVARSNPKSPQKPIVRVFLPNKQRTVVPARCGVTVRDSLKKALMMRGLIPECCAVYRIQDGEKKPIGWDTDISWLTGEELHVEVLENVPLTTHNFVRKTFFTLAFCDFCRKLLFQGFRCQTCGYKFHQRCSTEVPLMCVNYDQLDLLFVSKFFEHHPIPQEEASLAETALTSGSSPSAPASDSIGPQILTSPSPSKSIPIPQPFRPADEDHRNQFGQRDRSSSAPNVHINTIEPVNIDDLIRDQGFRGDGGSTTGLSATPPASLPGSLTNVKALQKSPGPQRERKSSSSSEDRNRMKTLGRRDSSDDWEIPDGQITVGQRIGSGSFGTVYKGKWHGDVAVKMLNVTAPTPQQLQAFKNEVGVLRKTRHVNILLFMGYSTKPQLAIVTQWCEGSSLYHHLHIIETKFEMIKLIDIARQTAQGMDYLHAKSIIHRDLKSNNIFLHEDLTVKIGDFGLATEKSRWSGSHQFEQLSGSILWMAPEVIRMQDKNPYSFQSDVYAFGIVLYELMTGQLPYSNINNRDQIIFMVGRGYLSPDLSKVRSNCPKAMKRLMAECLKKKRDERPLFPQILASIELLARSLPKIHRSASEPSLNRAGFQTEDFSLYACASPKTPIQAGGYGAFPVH

[14] = target: MAP kinase-interacting serine/threonine-protein kinase 2 (Homo sapiens) (UniProt Q9HBH9); assay: Inhibition of MNK2alpha at 10 uM
[15] = target: Serine/threonine-protein kinase PAK 6 (Homo sapiens) (UniProt Q9NQU5); assay: Inhibition of human PAK6 at 10 uM
[16] = target: Serine/threonine-protein kinase Chk1 (Homo sapiens) (UniProt O14757); assay: Inhibition of CHK1 at 10 uM
[17] = target: Serine/threonine-protein kinase BRSK2 (Homo sapiens) (UniProt Q8IWQ3); assay: Inhibition of human BRSK2 at 10 uM
[18] = target: Ribosomal protein S6 kinase alpha-5 (Homo sapiens) (UniProt O75582); assay: Inhibition of MSK1 at 10 uM
[19] = target: MAP kinase-activated protein kinase 3 (Homo sapiens) (UniProt Q16644); assay: Inhibition of MAPKAP-K3 at 10 uM
Chain of MAP kinase-activated protein kinase 3 (Homo sapiens) (Q16644 whole entry, looked up): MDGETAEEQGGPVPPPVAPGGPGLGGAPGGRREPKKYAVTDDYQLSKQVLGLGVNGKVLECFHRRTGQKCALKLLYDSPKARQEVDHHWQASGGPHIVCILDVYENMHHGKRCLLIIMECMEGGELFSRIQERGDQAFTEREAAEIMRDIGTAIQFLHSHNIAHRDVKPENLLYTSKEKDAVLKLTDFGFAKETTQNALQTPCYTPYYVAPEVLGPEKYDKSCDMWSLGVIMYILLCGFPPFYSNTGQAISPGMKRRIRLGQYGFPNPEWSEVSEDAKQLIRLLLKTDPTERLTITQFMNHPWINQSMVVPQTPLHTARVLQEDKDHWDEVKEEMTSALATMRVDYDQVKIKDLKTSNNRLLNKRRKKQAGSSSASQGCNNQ

[20] = target: Serine/threonine-protein kinase Nek6 (Homo sapiens) (UniProt Q9HC98); assay: Inhibition of NEK6 at 10 uM
[21] = target: Serine/threonine-protein kinase pim-2 (Homo sapiens) (UniProt Q9P1W9); assay: Inhibition of PIM2 at 10 uM
Chain of Serine/threonine-protein kinase pim-2 (Homo sapiens) (Q9P1W9 whole entry, looked up): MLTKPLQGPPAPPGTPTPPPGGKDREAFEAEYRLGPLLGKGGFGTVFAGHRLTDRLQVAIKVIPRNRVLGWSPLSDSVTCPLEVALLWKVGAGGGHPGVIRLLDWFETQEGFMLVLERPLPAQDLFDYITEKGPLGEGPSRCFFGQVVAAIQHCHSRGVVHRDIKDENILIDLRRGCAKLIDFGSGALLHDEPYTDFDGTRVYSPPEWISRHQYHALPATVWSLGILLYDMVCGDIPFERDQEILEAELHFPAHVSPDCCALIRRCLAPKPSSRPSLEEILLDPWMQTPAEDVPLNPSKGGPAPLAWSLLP

[22] = target: Inhibitor of nuclear factor kappa-B kinase subunit epsilon (Homo sapiens) (UniProt Q14164); assay: Inhibition of human IKKe at 10 uM
[23] = target: Dual specificity tyrosine-phosphorylation-regulated kinase 3 (Homo sapiens) (UniProt O43781); assay: Inhibition of human DYRK3 at 10 uM
[24] = target: Proto-oncogene tyrosine-protein kinase Src (Gallus gallus) (UniProt P00523); assay: Inhibition of chick SRC at 10 uM
[25] = target: Protein kinase C zeta type (Homo sapiens) (UniProt Q05513); assay: Inhibition of human PKCzeta at 10 uM
[26] = target: Serine/threonine-protein kinase TBK1 (Homo sapiens) (UniProt Q9UHD2); assay: Inhibition of human TBK1 at 10 uM
[27] = target: MAP kinase-activated protein kinase 2 (Homo sapiens) (UniProt P49137); assay: Inhibition of MAPKAP-K2 (delta 1-45) at 10 uM
Chain of MAP kinase-activated protein kinase 2 (Homo sapiens) (P49137 whole entry, looked up): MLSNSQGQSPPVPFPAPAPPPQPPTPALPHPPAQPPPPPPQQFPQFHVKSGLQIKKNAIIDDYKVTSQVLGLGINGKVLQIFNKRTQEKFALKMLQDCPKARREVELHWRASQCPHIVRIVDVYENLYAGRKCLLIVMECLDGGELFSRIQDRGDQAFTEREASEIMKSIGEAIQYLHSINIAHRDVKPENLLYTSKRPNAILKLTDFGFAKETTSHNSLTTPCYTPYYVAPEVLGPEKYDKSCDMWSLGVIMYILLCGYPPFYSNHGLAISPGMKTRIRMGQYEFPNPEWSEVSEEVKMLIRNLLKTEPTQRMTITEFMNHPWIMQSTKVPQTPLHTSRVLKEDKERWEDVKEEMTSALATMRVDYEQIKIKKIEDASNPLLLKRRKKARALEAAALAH

[28] = target: Serine/threonine-protein kinase 3 (Homo sapiens) (UniProt Q13188); assay: Inhibition of human MST2 at 10 uM
[29] = target: Serine/threonine-protein kinase PAK 5 (Homo sapiens) (UniProt Q9P286); assay: Inhibition of human PAK5 at 10 uM
[30] = target: Dual specificity tyrosine-phosphorylation-regulated kinase 2 (Homo sapiens) (UniProt Q92630); assay: Inhibition of human DYRK2 at 10 uM
[31] = target: Glycogen synthase kinase-3 beta (Homo sapiens) (UniProt P49841); assay: Inhibition of GSK3-beta at 10 uM
[32] = target: Mitogen-activated protein kinase 13 (Homo sapiens) (UniProt O15264); assay: Inhibition of SAPK4 at 10 uM
[33] = target: Ribosomal protein S6 kinase alpha-3 (Homo sapiens) (UniProt P51812); assay: Inhibition of RSK2 at 10 uM
[34] = target: Mitogen-activated protein kinase 3 (Homo sapiens) (UniProt P27361); assay: Inhibition of human ERK1 at 10 uM
Chain of Mitogen-activated protein kinase 3 (Homo sapiens) (P27361 whole entry): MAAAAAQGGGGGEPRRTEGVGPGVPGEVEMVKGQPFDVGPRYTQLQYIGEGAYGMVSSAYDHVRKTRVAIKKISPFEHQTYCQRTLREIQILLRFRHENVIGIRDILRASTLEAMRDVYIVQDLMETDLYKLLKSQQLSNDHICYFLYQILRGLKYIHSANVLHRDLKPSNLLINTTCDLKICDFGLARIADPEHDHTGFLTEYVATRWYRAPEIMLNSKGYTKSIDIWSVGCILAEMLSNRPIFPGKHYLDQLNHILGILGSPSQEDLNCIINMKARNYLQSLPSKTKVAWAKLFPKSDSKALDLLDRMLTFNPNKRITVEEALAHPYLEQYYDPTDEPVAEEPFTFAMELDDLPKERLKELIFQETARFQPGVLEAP

[35] = target: Proto-oncogene tyrosine-protein kinase LCK (Mus musculus) (UniProt P06240); assay: Inhibition of mouse LCK at 10 uM
[36] = target: SRSF protein kinase 1 (Homo sapiens) (UniProt Q96SB4); assay: Inhibition of SRPK1 at 10 uM
[37] = target: Serine/threonine-protein kinase N2 (Homo sapiens) (UniProt Q16513); assay: Inhibition of PRK2 at 10 uM
[38] = target: Aurora kinase C (Homo sapiens) (UniProt Q9UQB9); assay: Inhibition of human aurora C at 10 uM
Chain of Aurora kinase C (Homo sapiens) (Q9UQB9 whole entry): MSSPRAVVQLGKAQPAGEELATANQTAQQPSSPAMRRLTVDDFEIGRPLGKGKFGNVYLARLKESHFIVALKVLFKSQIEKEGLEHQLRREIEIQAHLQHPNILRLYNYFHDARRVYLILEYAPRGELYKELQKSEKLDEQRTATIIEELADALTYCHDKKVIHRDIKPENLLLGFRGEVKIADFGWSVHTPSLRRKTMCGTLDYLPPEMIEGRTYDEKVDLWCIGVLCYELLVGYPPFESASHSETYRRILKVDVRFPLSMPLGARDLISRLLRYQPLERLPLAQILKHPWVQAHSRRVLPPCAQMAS

[39] = target: Inhibitor of nuclear factor kappa-B kinase subunit beta (Homo sapiens) (UniProt O14920); assay: Inhibition of IKKb at 10 uM
Chain of Inhibitor of nuclear factor kappa-B kinase subunit beta (Homo sapiens) (O14920 whole entry): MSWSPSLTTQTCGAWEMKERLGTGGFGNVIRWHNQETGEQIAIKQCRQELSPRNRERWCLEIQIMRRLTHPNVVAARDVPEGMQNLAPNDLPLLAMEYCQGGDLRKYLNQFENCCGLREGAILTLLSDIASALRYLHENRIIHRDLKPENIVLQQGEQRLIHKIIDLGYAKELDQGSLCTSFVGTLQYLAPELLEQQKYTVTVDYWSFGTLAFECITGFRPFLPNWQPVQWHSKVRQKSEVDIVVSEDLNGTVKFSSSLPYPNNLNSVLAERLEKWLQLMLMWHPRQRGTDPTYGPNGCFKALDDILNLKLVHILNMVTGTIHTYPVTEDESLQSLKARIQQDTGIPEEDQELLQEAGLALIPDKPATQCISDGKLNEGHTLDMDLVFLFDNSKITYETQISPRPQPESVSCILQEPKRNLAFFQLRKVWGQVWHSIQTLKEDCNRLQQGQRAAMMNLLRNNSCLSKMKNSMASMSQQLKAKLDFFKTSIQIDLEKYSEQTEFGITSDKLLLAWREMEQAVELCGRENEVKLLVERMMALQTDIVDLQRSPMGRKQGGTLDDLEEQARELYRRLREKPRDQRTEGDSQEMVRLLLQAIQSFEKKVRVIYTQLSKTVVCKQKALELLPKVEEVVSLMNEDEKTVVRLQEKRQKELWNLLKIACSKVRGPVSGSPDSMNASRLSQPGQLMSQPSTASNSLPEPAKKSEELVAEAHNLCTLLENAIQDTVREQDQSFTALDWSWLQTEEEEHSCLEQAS

[40] = target: Insulin receptor-related protein (Homo sapiens) (UniProt P14616); assay: Inhibition of human IRR at 10 uM
[41] = target: Mitogen-activated protein kinase 8 (Homo sapiens) (UniProt P45983); assay: Inhibition of JNK1alpha1 at 10 uM
[42] = target: Tyrosine-protein kinase SYK (Homo sapiens) (UniProt P43405); assay: Inhibition of human SYK at 10 uM
[43] = species on record: Rattus norvegicus; assay: Inhibition of rat AMPK at 10 uM
[44] = Inhibition of PKA at 10 uM
[45] = target: Protein kinase C alpha type (Homo sapiens) (UniProt P17252); assay: Inhibition of PKCalpha at 10 uM
[46] = target: Vascular endothelial growth factor receptor 2 (Homo sapiens, UniProt P35968); assay: Inhibition of VEGFR2 up to 100 uM
[47] = target: Angiopoietin-1 receptor (Homo sapiens, UniProt Q02763); assay: Inhibition of TIE2 up to 100 uM
Chain of Angiopoietin-1 receptor (Q02763 whole entry): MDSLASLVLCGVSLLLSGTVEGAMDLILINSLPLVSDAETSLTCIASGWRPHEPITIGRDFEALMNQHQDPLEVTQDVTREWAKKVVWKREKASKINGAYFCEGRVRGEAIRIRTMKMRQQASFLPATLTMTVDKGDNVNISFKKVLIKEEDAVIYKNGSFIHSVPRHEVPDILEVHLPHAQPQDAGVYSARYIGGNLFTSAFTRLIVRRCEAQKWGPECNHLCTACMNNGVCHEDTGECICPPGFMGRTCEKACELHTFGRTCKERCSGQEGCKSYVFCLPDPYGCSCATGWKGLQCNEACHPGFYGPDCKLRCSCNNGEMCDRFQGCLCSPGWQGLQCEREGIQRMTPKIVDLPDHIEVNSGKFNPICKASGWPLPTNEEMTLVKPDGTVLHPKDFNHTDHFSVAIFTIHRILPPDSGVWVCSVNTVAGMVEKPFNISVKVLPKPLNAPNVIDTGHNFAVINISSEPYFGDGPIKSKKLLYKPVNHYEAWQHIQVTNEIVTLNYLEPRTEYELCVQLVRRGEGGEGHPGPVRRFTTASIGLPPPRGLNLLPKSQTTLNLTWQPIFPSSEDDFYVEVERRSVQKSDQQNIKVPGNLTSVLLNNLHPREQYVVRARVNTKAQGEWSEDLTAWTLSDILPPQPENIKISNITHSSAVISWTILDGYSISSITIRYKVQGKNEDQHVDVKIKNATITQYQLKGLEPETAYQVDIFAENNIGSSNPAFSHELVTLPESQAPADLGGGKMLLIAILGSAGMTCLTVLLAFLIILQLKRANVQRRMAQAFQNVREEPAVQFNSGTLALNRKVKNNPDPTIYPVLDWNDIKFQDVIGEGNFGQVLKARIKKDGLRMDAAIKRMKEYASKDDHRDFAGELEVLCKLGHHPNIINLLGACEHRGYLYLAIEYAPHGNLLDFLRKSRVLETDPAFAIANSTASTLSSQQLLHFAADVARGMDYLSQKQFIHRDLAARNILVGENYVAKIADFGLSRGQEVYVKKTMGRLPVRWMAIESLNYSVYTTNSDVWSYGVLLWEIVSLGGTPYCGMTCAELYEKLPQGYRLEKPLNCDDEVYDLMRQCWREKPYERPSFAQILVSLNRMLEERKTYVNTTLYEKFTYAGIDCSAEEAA

inhibition [1]: inactive
SMILES: Nc1ncnc2ncn(CC(=O)c3ccccc3)c12

inhibition [2]: inactive
inhibition [3]: inactive
inhibition [4]: inactive
inhibition [5]: inactive
inhibition [6]: inactive
inhibition [7]: inactive
inhibition [8]: inactive
inhibition [9]: inactive
inhibition [10]: inactive
inhibition [11]: inactive
inhibition [12]: inactive
inhibition [13]: inactive
inhibition [14]: inactive
inhibition [15]: inactive
inhibition [16]: inactive
inhibition [17]: inactive
inhibition [18]: inactive
inhibition [19]: inactive
inhibition [20]: inactive
inhibition [21]: inactive
inhibition [22]: inactive
inhibition [23]: inactive
inhibition [24]: inactive
inhibition [25]: inactive
inhibition [26]: inactive
inhibition [27]: inactive
inhibition [28]: inactive
inhibition [29]: inactive
inhibition [30]: inactive
inhibition [31]: inactive
inhibition [32]: inactive
inhibition [33]: inactive
inhibition [34]: inactive
inhibition [35]: inactive
inhibition [36]: inactive
inhibition [37]: inactive
inhibition [38]: inactive
inhibition [39]: inactive
inhibition [40]: inactive
inhibition [41]: inactive
inhibition [42]: inactive
inhibition [43]: inactive
inhibition [44]: inactive
inhibition [45]: inactive
SMILES: Nc1ncnc2ncn(CC(=O)c3c[nH]c4ccccc34)c12

inhibition [46]: inactive
inhibition [47]: inactive
SMILES: Nc1ncnc2c1ncn2CC(=O)c1ccccc1
